In patent EP4745138A1, “THIO-GLUTARIMIDO ISOINDOLINONE DERIVATIVE, BIFUNCTIONAL PROTEIN DEGRADER CONTAINING SAME, AND USES THEREOF” (Gluetacs Therapeutics (Shanghai) Co., Ltd., priority 2023, dated 2025):
Like-named read-outs stand apart in the source and are kept apart here.

Tests used:
[1] = molecular target: T1, ALK (Homo sapiens, UniProt Q96SW2+Q9HC35+Q9UM73); assay: Western blot, target protein degradation in H2228 Cell; assay type: cell-based; details: substrate protein remaining %, treated at 500 nM and 50 nM, 24 hours
T1 construct: endogenous in cells; host or cells: H2228
Procedure: (§1) Conventional Western blot assay was performed to evaluate the effects of the compounds of the present disclosure on the expression of target proteins in cells.
(§2) (1) Cell Seeding and Protein Harvesting: The selected cells were processed according to the cell seeding procedure and protein harvesting procedure in Table II-2. Table II-2 Cell Seeding and Protein Harvesting Procedures
(§3) (2) To the collected supernatant, 5X SDS sample loading buffer was added, followed by denaturation at 95°C for 5 minutes. The denatured samples were then separated by SDS-PAGE electrophoresis on a polyacrylamide gel. Proteins were transferred to a nitrocellulose membrane (0.45 µm NC membrane), blocked with blocking buffer at room temperature for 1 hour, and subjected to antibody incubation and development procedures according to the antibody manufacturer's instructions (Cell Signaling Technology).
(§4) Half-Maximal Degradation Concentration value (the drug concentration required for degrading proteins by 50%, abbreviated as DC50) reads method: comparing the grayscale values of Western blot bands from drug-treated samples with those from blank DMSO-treated controls, and identifying the drug concentration range at which the grayscale value is half that of the DMSO-treated control bands.
(§5) DC50 values can be calculated using ImageJ software to measure grayscale values of Western blot bands from drug-treated samples. The concentration-response curve is fitted to estimate the drug concentration corresponding to half the grayscale value.
(§6) Target protein remaining (%) refers to the percentage of target protein remaining in cells after treatment with protein degrader compounds.
(§7) Calculation method for target protein remaining (%): Use ImageJ software to measure grayscale values of Western blot bands from drug (protein degrader)-treated samples. The grayscale value of drug-treated bands is divided by that of internal control protein bands, and the resulting quotient is normalized to obtain the relative percentage of remaining target protein after protein degrader treatment. Target protein degradation rate(%) = 1−target protein remaining(%). [formula]

[2] = system: MM.1S; assay: Tumor cell proliferation inhibition (CellTiter-Meiluncell Luminescent Cell Viability Assay); assay type: cell-based; details: Homo sapiens, MM1.S, MM.1S, 96 hours, Table I-2, ALK inhibitors; for inhibition at 0.01 µM: 10 nM, read-out: Inhibition Rate at 10 nM (%); for inhibition at 0.5 µM: 500 nM, read-out: Inhibition Rate at 500 nM (%)
Outline: (§8)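 Following overnight seeding, tumor cells received serial compound dilutions to final levels that included 10 nM and 500 nM. Viability was assessed by luminescence at the end of the specified exposure time. Cultures were kept at 37°C with 5% CO2.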

[3] = system: MCF-7; assay: as above; assay type: cell-based; details: Homo sapiens, 96 hours, Table I-2, ALK inhibitors; for inhibition at 0.01 µM: MCF7, 10 nM, read-out: Inhibition Rate at 10 nM (%); for inhibition at 0.5 µM: MCF7, 500 nM, read-out: Inhibition Rate at 500 nM (%)
Outline: as §8

[4] = system: MV-4-11; assay: as above; assay type: cell-based; details: Homo sapiens, 96 hours; for inhibition at 0.01 µM: MV4-11, 10 nM, read-out: Inhibition Rate at 10 nM (%); for inhibition at 0.5 µM: MV4-11, 500 nM, read-out: Inhibition Rate at 500 nM (%)
Outline: as §8

[5] = molecular target: T2, human Cereblon WT GST-tagged protein (Homo sapiens, UniProt Q96SW2); assay: CRBN-binding affinity, HTRF (CEREBLON BINDING kit); details: for inhibition at 0.5 µM: read-out: Inhibition Rate at 0.5 µM (%); for inhibition at 2 µM: read-out: Inhibition Rate at 2 µM (%)
T2 construct: purchased CISBIO 64BDCRBNPEH
Outline: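 Competitive HTRF binding: compounds diluted in diluent #9 incubated with GST-tagged wild-type human Cereblon, thalidomide-Red tracer and anti-GST Eu antibody. Final compound concentrations 2 µM and 0.5 µM.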

[6] = molecular target: T3, FAK (Homo sapiens, UniProt Q05397); assay: Western blot, target protein degradation in A549 Cell; assay type: cell-based; details: substrate protein remaining %, treated at 500 nM and 50 nM, 24 hours
T3 construct: endogenous in cells; host or cells: A549
Procedure: as §1, §2, §3, §4, §5, §6, §7

[7] = system: RPMI-8226; assay: Tumor cell proliferation inhibition (CellTiter-Meiluncell Luminescent Cell Viability Assay); assay type: cell-based; details: Homo sapiens, 96 hours, Table I-3, EGFR inhibitors
Outline: as §8

[8] = system: SW620; assay: as above; assay type: cell-based; details: Homo sapiens, 96 hours, Table I-3, EGFR inhibitors
Outline: as §8

[9] = system: H1975; assay: as above; assay type: cell-based; details: Homo sapiens, 96 hours, Table I-3, EGFR inhibitors
Outline: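 Cells were grown at 37°C under 5% CO2, seeded into 96-well plates, and dosed with compound on the next day. After a set treatment period, viability was read by luminescence with the CellTiter-Meiluncell reagent and IC50 values were derived. Final compound concentrations included 500 nM and 10 nM.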

T3 sequence (Q05397 whole entry): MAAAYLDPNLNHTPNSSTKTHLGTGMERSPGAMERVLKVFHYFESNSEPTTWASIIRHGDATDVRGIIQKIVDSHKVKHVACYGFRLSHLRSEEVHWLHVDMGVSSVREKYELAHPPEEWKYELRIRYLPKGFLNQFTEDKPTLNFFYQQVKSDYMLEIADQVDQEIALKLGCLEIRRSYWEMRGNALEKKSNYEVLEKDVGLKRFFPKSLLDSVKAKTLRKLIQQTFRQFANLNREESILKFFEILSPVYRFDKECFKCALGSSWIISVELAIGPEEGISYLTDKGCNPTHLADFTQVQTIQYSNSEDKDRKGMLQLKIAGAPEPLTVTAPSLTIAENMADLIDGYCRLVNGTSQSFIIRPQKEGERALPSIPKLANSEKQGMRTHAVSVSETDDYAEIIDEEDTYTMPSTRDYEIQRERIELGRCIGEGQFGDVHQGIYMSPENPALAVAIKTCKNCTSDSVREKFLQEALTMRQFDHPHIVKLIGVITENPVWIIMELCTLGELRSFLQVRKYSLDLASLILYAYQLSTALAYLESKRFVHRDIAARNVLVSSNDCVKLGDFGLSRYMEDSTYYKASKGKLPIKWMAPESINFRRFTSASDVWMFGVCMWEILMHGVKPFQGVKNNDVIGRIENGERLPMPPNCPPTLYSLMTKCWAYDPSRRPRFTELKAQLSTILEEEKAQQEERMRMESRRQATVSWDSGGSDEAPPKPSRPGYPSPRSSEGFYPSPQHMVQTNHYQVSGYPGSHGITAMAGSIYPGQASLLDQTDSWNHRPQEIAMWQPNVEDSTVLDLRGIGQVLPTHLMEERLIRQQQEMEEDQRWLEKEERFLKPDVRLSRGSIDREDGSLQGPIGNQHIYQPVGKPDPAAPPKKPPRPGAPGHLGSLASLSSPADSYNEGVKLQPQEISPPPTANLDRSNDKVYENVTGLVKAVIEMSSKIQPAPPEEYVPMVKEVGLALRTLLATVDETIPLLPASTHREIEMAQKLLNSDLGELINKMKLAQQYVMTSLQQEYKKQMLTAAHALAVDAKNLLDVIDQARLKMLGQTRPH
T2 sequence (Q96SW2 whole entry): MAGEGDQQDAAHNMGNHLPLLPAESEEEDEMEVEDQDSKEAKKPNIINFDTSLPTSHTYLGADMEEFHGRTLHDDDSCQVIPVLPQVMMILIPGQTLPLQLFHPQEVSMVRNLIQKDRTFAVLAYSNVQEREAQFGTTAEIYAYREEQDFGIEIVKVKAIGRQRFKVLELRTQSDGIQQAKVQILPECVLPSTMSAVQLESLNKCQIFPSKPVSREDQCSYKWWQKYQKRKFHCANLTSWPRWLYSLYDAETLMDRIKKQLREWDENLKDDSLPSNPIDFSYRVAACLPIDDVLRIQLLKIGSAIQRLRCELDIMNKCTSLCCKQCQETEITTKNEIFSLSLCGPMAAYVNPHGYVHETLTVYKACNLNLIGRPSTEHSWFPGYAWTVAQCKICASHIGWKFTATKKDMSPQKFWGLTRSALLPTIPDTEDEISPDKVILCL
T1 sequence (Q9HC35+Q9UM73 fused): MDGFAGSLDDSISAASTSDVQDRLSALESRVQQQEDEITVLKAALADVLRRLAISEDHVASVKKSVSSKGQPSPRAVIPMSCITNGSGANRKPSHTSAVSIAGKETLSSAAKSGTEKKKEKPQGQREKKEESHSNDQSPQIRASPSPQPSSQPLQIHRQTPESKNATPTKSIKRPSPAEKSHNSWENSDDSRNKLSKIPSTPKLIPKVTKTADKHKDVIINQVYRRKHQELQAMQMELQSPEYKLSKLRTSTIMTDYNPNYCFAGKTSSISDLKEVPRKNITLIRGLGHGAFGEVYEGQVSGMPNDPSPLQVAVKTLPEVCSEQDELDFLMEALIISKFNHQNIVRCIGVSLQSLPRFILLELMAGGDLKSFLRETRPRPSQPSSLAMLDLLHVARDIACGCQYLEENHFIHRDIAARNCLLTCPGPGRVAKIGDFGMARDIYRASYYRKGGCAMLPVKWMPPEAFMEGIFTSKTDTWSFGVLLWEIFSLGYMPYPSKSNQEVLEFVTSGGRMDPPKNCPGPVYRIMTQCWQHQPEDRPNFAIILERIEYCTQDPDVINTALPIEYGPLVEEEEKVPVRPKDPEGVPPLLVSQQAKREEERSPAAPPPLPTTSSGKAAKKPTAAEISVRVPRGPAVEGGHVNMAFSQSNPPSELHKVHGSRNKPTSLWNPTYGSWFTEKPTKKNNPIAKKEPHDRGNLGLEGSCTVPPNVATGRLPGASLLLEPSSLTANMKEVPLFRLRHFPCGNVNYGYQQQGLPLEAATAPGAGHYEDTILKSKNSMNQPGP
T1 sequence (Q96SW2 whole entry): as the sequence (Q96SW2 whole entry) above
T1 sequence (Q16531 whole entry partner): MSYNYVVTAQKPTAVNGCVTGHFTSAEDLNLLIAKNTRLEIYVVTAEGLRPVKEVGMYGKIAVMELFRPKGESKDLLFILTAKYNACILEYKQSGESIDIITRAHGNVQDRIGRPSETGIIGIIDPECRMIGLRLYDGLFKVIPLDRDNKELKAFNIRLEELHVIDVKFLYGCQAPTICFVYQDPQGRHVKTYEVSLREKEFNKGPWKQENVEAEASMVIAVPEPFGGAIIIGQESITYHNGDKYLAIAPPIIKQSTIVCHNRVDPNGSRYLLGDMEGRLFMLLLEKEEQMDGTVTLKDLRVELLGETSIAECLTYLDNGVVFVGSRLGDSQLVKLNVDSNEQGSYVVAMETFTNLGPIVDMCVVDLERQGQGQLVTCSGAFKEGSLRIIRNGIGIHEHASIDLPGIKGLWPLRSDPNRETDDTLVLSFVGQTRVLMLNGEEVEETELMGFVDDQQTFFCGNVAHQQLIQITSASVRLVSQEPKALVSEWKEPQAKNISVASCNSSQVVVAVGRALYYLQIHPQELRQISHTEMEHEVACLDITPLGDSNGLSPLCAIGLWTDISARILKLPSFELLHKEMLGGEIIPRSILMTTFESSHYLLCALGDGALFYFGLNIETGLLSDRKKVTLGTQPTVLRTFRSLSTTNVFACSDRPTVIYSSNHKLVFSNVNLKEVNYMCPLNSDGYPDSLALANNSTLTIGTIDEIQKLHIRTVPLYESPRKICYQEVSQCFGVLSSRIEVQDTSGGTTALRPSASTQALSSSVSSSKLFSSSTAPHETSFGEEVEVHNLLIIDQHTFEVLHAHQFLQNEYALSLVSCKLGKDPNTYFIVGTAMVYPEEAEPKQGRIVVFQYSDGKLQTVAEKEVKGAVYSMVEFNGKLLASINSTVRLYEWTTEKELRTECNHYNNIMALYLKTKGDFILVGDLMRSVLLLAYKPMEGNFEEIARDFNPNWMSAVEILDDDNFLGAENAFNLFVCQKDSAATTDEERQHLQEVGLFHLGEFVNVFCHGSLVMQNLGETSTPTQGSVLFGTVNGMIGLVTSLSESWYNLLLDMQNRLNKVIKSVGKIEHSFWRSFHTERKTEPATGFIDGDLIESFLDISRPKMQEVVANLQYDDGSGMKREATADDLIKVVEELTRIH

SMILES	Degradation of substrate protein ALK [1]	inhibition at 0.01 µM [2]	inhibition at 0.5 µM [2]	inhibition at 0.01 µM [3]	inhibition at 0.5 µM [3]	inhibition at 0.01 µM ([4]; Table I-2, ALK inhibitors)	inhibition at 0.5 µM ([4]; Table I-2, ALK inhibitors)	inhibition at 0.5 µM [5]	inhibition at 2 µM [5]	Degradation of substrate protein FAK [6]	also measured
COc1cc(N2CCN(Cc3ccc4c(c3)CN(C3CCC(=O)NC3=O)C4=S)CC2)ccc1Nc1ncc(Cl)c(Nc2ccccc2P(C)(C)=O)n1 (stereo not shown) [GT-08675, 3-(5-((4-(4-((5-chloro-4-((2-(dimethylphosphoryl)phenyl)amino)pyrimidin-2-yl)amino)-3-methoxyphenyl)piperazin-1-yl)methyl)-1-thioxoisoindolin-2-yl)piperidine-2,6-dione]	A (0% ≤ substrate protein remaining % ≤ 80%)	10 to 20%	30 to 40%	20 to 30%	40 to 50%	10 to 20%	70 to 80%	80 to 100%	80 to 100%	–	–
Cc1cc(Nc2ncc(Cl)c(Nc3ccccc3S(=O)(=O)C(C)C)n2)c(OC(C)C)cc1C1CCN(Cc2cccc3c2CN(C2CCC(=O)NC2=O)C3=S)CC1 (stereo not shown) [GT-08676, 3-(4-((4-(4-((5-chloro-4-((2-(isopropylsulfonyl)pheny 1)amino)pyrimidin-2-yl)amino)-5-isopropoxy-2-methylphenyl)piperidin-1-yl)methyl)-1-thioxoisoindolin-2-yl)piperidine-2,6-dione]	A (0% ≤ substrate protein remaining % ≤ 80%)	10 to 20%	30 to 40%	40 to 50%	60 to 70%	40 to 50%	60 to 70%	40 to 53%	60 to 80%	–	–
Cc1cc(Nc2ncc(Cl)c(Nc3ccccc3S(=O)(=O)C(C)C)n2)c(OC(C)C)cc1C1CCN(Cc2ccc3c(c2)C(=S)N(C2CCC(=O)NC2=O)C3)CC1 (stereo not shown) [GT-08678, 3-(6-((4-(4-((5-chloro-4-((2-(isopropylsulfonyl)pheny 1)amino)pyrimidin-2-yl)amino)-5-isopropoxy-2-methylphenyl)piperidin-1-yl)methyl)-1-thioxoisoindolin-2-yl)piperidine-2,6-dione]	A (0% ≤ substrate protein remaining % ≤ 80%)	0 to 10%	50 to 60%	-20 to -10%	40 to 50%	–	–	40 to 53%	60 to 80%	–	–
COc1cc(N2CCN(Cc3ccc4c(c3)C(=S)N(C3CCC(=O)NC3=O)C4)CC2)ccc1Nc1ncc(Cl)c(Nc2ccccc2P(C)(C)=O)n1 (stereo not shown) [GT-08679, 3-(6-((4-(4-((5-chloro-4-((2-(dimethylphosphoryl)phenyl)amino)pyrimidin-2-yl)amino)-3-methoxyphenyl)piperazin-1-yl)methyl)-1-thioxoisoindolin-2-yl)piperidine-2,6-dione]	A (0% ≤ substrate protein remaining % ≤ 80%)	10 to 20%	20 to 30%	20 to 30%	40 to 50%	50 to 60%	80 to 100%	60 to 80%	80 to 100%	–	–
COc1cc(N2CCC(N(C)Cc3ccc4c(c3)C(=S)N(C3CCC(=O)NC3=O)C4)CC2)ccc1Nc1ncc(Cl)c(Nc2ccccc2P(C)(C)=O)n1 (stereo not shown) [GT-08680, 3-(6-(((1-(4-((5-chloro-4-((2-(dimethylphosphoryl)phenyl)amino)pyrimidin-2-yl)amino)-3-methoxyphenyl)piperidin-4-yl)(methyl)amino)methyl)-1-thioxoisoindolin-2-yl)piperidine-2,6-dione]	A (0% ≤ substrate protein remaining % ≤ 80%)	0 to 10%	50 to 60%	–	–	10 to 20%	60 to 70%	60 to 80%	80 to 100%	–	–
CN(c1nccnc1CNc1nc(Nc2ccc(N3CCN(Cc4ccc5c(c4)CN(C4CCC(=O)NC4=O)C5=S)CC3)cc2)ncc1C(F)(F)F)S(C)(=O)=O (stereo not shown) [GT-08779, N-(3-(((2-((4-(4-((2-(2,6-dioxopiperidin-3-yl)-1-thioxoisoindolin-5-yl)methyl)piperazin-1-yl)phenyl)amino)-5-(trifluoromethyl)pyrimidin-4-yl)amino)methyl)pyrazin-2-yl)-N-methylmethanesulfonamide]	–	–	–	–	–	–	–	30 to 40%	80 to 100%	A (0% ≤ substrate protein remaining % ≤ 80%)	inhibition at 0.01 µM ([4]; Table I-12, FAK inhibitors): 10 to 20%; inhibition at 0.5 µM ([4]; Table I-12, FAK inhibitors): 70 to 80%
CNC(=O)c1ccccc1Nc1cc(Nc2cc(C)c(C3CCN(Cc4ccc5c(c4)CN(C4CCC(=O)NC4=O)C5=S)CC3)cc2OC(C)C)ncc1C(F)(F)F (stereo not shown) [GT-08782, 2-((2-((4-(1-((2-(2,6-dioxopiperidin-3-yl)-1-thioxoisoindolin-5-yl)methyl)piperidin-4-yl)-2-isopropoxy-5-methylphenyl)amino)-5-(trifluoromethyl)pyridin-4-yl)amino)-N-methylbenzamide]	–	–	–	–	–	–	–	–	–	A (0% ≤ substrate protein remaining % ≤ 80%)	–
CS(=O)(=O)c1cccc(CNc2nc(Nc3ccc(N4CCN(Cc5cccc6c5CN(C5CCC(=O)NC5=O)C6=S)CC4)cc3)ncc2C(F)(F)F)c1 (stereo not shown) [GT-08784, 3-(4-((4-(4-((4-((3-(methylsulfonyl)benzyl)amino)-5-(trifluoromethyl)pyrimidin-2-yl)amino)phenyl)piperazin-1-yl)methyl)-1-thioxoisoindolin-2-yl)piperidine-2,6-dione]	–	–	–	–	–	–	–	53 to 60%	80 to 100%	A (0% ≤ substrate protein remaining % ≤ 80%)	–
C#Cc1cccc(Nc2ncnc3cc(OCCOC)c(OCCOC)cc23)c1 [erlotinib, Erlotinib, reference compound]	–	–	–	–	–	–	–	–	–	–	inhibition at 0.01 µM ([7]; 10 nM, read-out: Inhibition Rate at 10 nM (%)): 20 to 30%; inhibition at 0.5 µM ([7]; 500 nM, read-out: Inhibition Rate at 500 nM (%)): 20 to 30%; inhibition at 0.01 µM ([8]; SW-620, 10 nM, read-out: Inhibition Rate at 10 nM (%)): 10 to 20%; inhibition at 0.5 µM ([8]; SW-620, 500 nM, read-out: Inhibition Rate at 500 nM (%)): 10 to 20%; inhibition at 0.01 µM ([9]; NCI-H1975, 10 nM, read-out: Inhibition Rate at 10 nM (%)): 0 to 5%; inhibition at 0.5 µM ([9]; NCI-H1975, 500 nM, read-out: Inhibition Rate at 500 nM (%)): 0 to 5%; inhibition at 0.01 µM ([4]; Table I-3, EGFR inhibitors): 0 to 5%; inhibition at 0.5 µM ([4]; Table I-3, EGFR inhibitors): 10 to 20%
